Literature values, collected in US6342520B1, “Locally injectable chemotherapeutics” (priority 2000, dated 2002).

Settings: Phase II clinical trials, administration by general circulation

In the case of `CC(=O)OC[C@]12CCC(C)=C[C@H]1O[C@@H]1[C@H](O)[C@@H](OC(C)=O)[C@@]2(C)[C@]12CO2` [Anguidine], the hematologic toxicity is listed as “considerable hematologic toxicity” and the “overall tumor response rate” value is listed as “low”.
